The text below walks through data of PubChem BioAssay AID330 (DTP/NCI, 2004).

In the test the test system is P388 leukemia ip, CD2F1 mice, survival T/C. The test can be described thus: NCI In Vivo Anticancer Drug Screen. Data for tumor model P388 Leukemia (intraperitoneal) in CD2F1 (CDF1) mice. The conditions noted are these: endpoint: median survival time, higher = longer survival. Summed up:
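Mice carrying the transplanted tumor received test compound or vehicle. Survival was recorded in each group, and the value is the treated-group measurement divided by that of the vehicle-treated control group.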

Where [1] appears, read: dose: 100.0 mg/kg/injection, schedule: Q01DX009 (ip), vehicle: saline with Tween-80.
[2] abbreviates: dose: 50.0 mg/kg/injection, schedule: Q01DX009 (ip), vehicle: saline.
Setting [3] is: dose: 100.0 mg/kg/injection, schedule: Q01DX009 (ip), vehicle: saline.
The mark [4] stands for this setting: dose: 200.0 mg/kg/injection, schedule: Q01DX009 (ip), vehicle: saline.
Where [5] appears, read: dose: 50.0 mg/kg/injection, schedule: Q01DX009 (ip), vehicle: saline with Tween-80.
Where [6] appears, read: dose: 25.0 mg/kg/injection, schedule: Q01DX005 (ip), vehicle: saline.

Molecules are shown by their SMILES. “And” between values parts separate entries of the source, which are not always exact repeats. Equal values may be shown once. Toxic doses and inconclusive results are not listed.

For the molecule `CCN(CC)C1=NS(=O)(=O)c2ccccc2C(c2ccccc2)=C1C`, the T/C was 99 % of control (dose: 25.0 mg/kg/injection, schedule: Q04DX003 (ip), vehicle: Klucel (hydroxypropylcellulose) (HPC)); 99 % of control (dose: 50.0 mg/kg/injection, schedule: Q04DX003 (ip), vehicle: Klucel (hydroxypropylcellulose) (HPC)); 100 % of control and 95 % of control (dose: 100.0 mg/kg/injection, schedule: Q04DX003 (ip), vehicle: Klucel (hydroxypropylcellulose) (HPC)); 87 % of control (dose: 400.0 mg/kg/injection, schedule: Q04DX003 (ip), vehicle: Klucel (hydroxypropylcellulose) (HPC)).
With `CC(=O)NS(=O)(=O)c1ccc(NN=Nc2ccccc2Cl)cc1`, the T/C reads like this: (dose: 50.0 mg/kg/injection, schedule: Q01DX005 (ip), vehicle: Klucel (hydroxypropylcellulose) (HPC)) 95 % of control; (dose: 100.0 mg/kg/injection, schedule: Q01DX005 (ip), vehicle: Klucel (hydroxypropylcellulose) (HPC)) 94 % of control; (dose: 200.0 mg/kg/injection, schedule: Q01DX005 (ip), vehicle: Klucel (hydroxypropylcellulose) (HPC)) 97 % of control.
As to `O=[N+]([O-])c1ccc(Sc2ncccn2)cc1`, the T/C runs as follows: (dose: 25.0 mg/kg/injection, schedule: Q04DX002 (ip), vehicle: suspension in saline) 108 % of control; (dose: 50.0 mg/kg/injection, schedule: Q04DX002 (ip), vehicle: suspension in saline) 94 % of control; (dose: 100.0 mg/kg/injection, schedule: Q04DX002 (ip), vehicle: suspension in saline) 101 % of control; (dose: 200.0 mg/kg/injection, schedule: Q04DX002 (ip), vehicle: suspension in saline) 100 % of control; (dose: 400.0 mg/kg/injection, schedule: Q04DX002 (ip), vehicle: suspension in saline) 96 % of control.
For `CCC(=O)Sc1ccccc1C(=O)Nc1ccc(Cl)cc1`, the T/C is 121 % of control and 86 % of control under setting [1]; 97 % of control (dose: 200.0 mg/kg/injection, schedule: Q01DX009 (ip), vehicle: saline with Tween-80).
For `O=C1CSC(=S)N1c1ccc(F)c(F)c1`, the T/C is 107 % of control under setting [2], 106 % of control under setting [3] and 108 % of control under setting [4].
For the molecule `O=C(NC(=O)C1CCC(=O)N1Cc1ccccc1)NC1CCC(=O)N1Cc1ccccc1` (stereo not drawn), the T/C is 96 % of control (dose: 60.0 mg/kg/injection, schedule: Q01DX005 (ip), vehicle: saline with Tween-80) and 94 % of control (dose: 120.0 mg/kg/injection, schedule: Q01DX005 (ip), vehicle: saline with Tween-80).
Regarding `Cc1c2[nH]c(C(=O)O)cc(=O)c2cc2c(=O)cc(C(=O)O)[nH]c12`, the T/C reads like this: (dose: 25.0 mg/kg/injection, schedule: Q01DX009 (ip), vehicle: saline with Tween-80) 100 % of control; under setting [5], 99 % of control; under setting [1], 94 % of control.
On to `C[CH2][Sn]([CH2]C(=O)OC)([CH2]C(=O)OC)[c]1ccccc1`, for which the T/C under setting [6] was 157 % of control; the T/C (dose: 50.0 mg/kg/injection, schedule: Q01DX005 (ip), vehicle: saline) is 181 % of control; the T/C (dose: 100.0 mg/kg/injection, schedule: Q01DX005 (ip), vehicle: saline) was 168 % of control.
As for `CC(=O)[O-].CC(=O)[O-].O=C(N/N=C/c1ccccc1[OH2+])c1ccncc1.[Zn+2]`, the T/C was 100 % of control (dose: 60.0 mg/kg/injection, schedule: Q01DX005 (ip), vehicle: Klucel (hydroxypropylcellulose) (HPC)); 100 % of control (dose: 120.0 mg/kg/injection, schedule: Q01DX005 (ip), vehicle: Klucel (hydroxypropylcellulose) (HPC)); 99 % of control (dose: 240.0 mg/kg/injection, schedule: Q01DX005 (ip), vehicle: Klucel (hydroxypropylcellulose) (HPC)).
With `O=C1CSC(=S)N1c1ccc(Cl)c([N+](=O)[O-])c1`, the T/C by setting is: (dose: 25.0 mg/kg/injection, schedule: Q01DX009 (ip), vehicle: saline) 101 % of control; under setting [2], 104 % of control and 111 % of control and 92 % of control; under setting [3], 99 % of control and 100 % of control; (dose: 100.0 mg/kg/injection, schedule: Q01DX009 (ip), vehicle: suspension in saline) 117 % of control; under setting [4], 102 % of control and 108 % of control; (dose: 200.0 mg/kg/injection, schedule: Q01DX009 (ip), vehicle: suspension in saline) 86 % of control.
For the molecule `C=CCN1CCCSC1=S`, the T/C is 106 % of control (dose: 50.0 mg/kg/injection, schedule: Q01DX009 (ip), vehicle: Klucel (hydroxypropylcellulose) (HPC)) and 108 % of control (dose: 100.0 mg/kg/injection, schedule: Q01DX009 (ip), vehicle: Klucel (hydroxypropylcellulose) (HPC)).
Consider `COC(=O)CC1OCC=C2CN3CCC45C6=CC(=O)C(=O)C([N+](=O)[O-])=C6NC4C1C2CC35` (stereo not drawn), for which the T/C was 101 % of control (dose: 7.5 mg/kg/injection, schedule: Q01DX005 (ip), vehicle: suspension in saline) and 100 % of control (dose: 15.0 mg/kg/injection, schedule: Q01DX005 (ip), vehicle: suspension in saline).
Regarding `COC1/C=C/OC2(C)Oc3c(C)c(O)c4c(O)c(c(/C=N/N5CC(C)(C)N(Cc6ccccc6)CC5(C)C)c(O)c4c3C2=O)NC(=O)C(C)=C/C=C/C(C)C(O)C(C)C(O)C(C)C(OC(C)=O)C1C` (stereo not drawn), the T/C by setting is: under setting [5], 107 % of control; under setting [1], 118 % of control.
Turning to `Oc1cc(Cl)c(O)c(-c2ccccc2)c1Cl`, the T/C is, setting by setting: (dose: 50.0 mg/kg/injection, schedule: Q01DX005 (ip), vehicle: saline with Tween-80) 102 % of control; (dose: 100.0 mg/kg/injection, schedule: Q01DX005 (ip), vehicle: saline with Tween-80) 102 % of control; (dose: 200.0 mg/kg/injection, schedule: Q01DX005 (ip), vehicle: saline with Tween-80) 90 % of control.
Take `Cc1nc(Nc2c3ccccc3nc3ccccc23)sc1C`: the T/C by setting is: (dose: 12.5 mg/kg/injection, schedule: Q04DX002 (ip), vehicle: distilled water + Tween-80) 103 % of control; (dose: 25.0 mg/kg/injection, schedule: Q04DX002 (ip), vehicle: distilled water + Tween-80) 100 % of control; (dose: 50.0 mg/kg/injection, schedule: Q04DX002 (ip), vehicle: distilled water + Tween-80) 88 % of control; (dose: 100.0 mg/kg/injection, schedule: Q04DX002 (ip), vehicle: distilled water + Tween-80) 87 % of control; (dose: 200.0 mg/kg/injection, schedule: Q04DX002 (ip), vehicle: distilled water + Tween-80) 90 % of control; (dose: 400.0 mg/kg/injection, schedule: Q04DX002 (ip), vehicle: distilled water + Tween-80) 98 % of control.
For the molecule `CN(C)CCOc1ccccc1NC1=C(Cl)C(=O)C(Nc2ccccc2OCCN(C)C)=C(Cl)C1=O`, the T/C runs as follows: (dose: 3.12 mg/kg/injection, schedule: Q01DX005 (ip), vehicle: saline) 96 % of control and 97 % of control; (dose: 6.25 mg/kg/injection, schedule: Q01DX005 (ip), vehicle: saline) 105 % of control and 106 % of control and 98 % of control; (dose: 12.5 mg/kg/injection, schedule: Q01DX005 (ip), vehicle: saline) 110 % of control and 114 % of control and 116 % of control; under setting [6], 105 % of control and 117 % of control and 121 % of control.
